# Results reported in US4477444A, “Antracycline glycosides, pharmaceutical compositions and method of use” (priority 1981, dated 1984).
# Assays:
# [1] = system: Hela cells; assay: Activity on Hela cells cloning efficiency in vitro, treatment for 24 hours; type: cell-based; settings: for cytotoxicity relative to daunorubicin and doxorubicin: Hela cells cloning efficiency in vitro; for % of controls (Hela cells cloning efficiency): 24 hours
# [2] = system: P388 leukemia; assay: Activity against P388 ascitic leukemia in mice, i.p. treatment on day 1 after tumor inoculation; type: in vivo; settings: for antitumor activity (overall conclusion): conclusion from all studies; for potency relative to the corresponding parent compounds / toxicity relative to the corresponding parent compounds: i.p. day 1, P388 leukemia mice
# Source text: (§1) Activity against P388 ascitic leukemia of XOO-0148 and
# (§2) Treatment i.p. on day 1 after tumor inoculation
# (§3) ^(a) T/C % = median survival time of treated mice/median survival tim
# [3] = Activity against i.v. inoculated Gross leukemia in mice, i.v. treatment on day 1 after tumor inoculation; type: in vivo; settings: mouse, in vivo, iv; i.v. day 1, Gross leukemia mice; read-out: maximal tolerated dose
# Procedure: (§4) Compound XOO-0148 was also tested on the i.v. inoculated Gross leukemia. Mice were treated i.v. on day 1.
# (§5) Activity against Gross leukemia of XOO-0148
# (§6) Treatment i.v. on day 1 after tumor inoculation
# as §3
# [4] = system: Gross leukemia; assay: as above; type: in vivo
# Procedure: as §4, §5, §6, §3
# [5] = Activity against P388 ascitic leukemia in mice, i.p. treatment on day 1 after tumor inoculation; type: in vivo; settings: mouse, in vivo, ip; for MTD: i.p. day 1, P388 leukemia mice, read-out: maximal tolerated dose
# Source text: as §1, §2, §3
# [6] = dose 12.5 (dose unit not given)
compound,measurement,setting,value
"COc1cccc2c1C(=O)c1c(O)c3c(c(O)c1C2=O)C[C@@](O)(C(C)=O)C[C@@H]3O[C@H]1C[C@@H](N)C[C@H](C)O1 [XOO-0148, 4'-deoxy-3'-epi-daunorubicin]",cytotoxicity relative to daunorubicin and doxorubicin,[1],less cytotoxic than daunorubicin and doxorubicin
same,% of controls (Hela cells cloning efficiency),[1]; dose 1.5 (dose unit not given),89%
same,% of controls (Hela cells cloning efficiency),[1]; dose 3.1 (dose unit not given),100%
same,% of controls (Hela cells cloning efficiency),[1]; dose 6.2 (dose unit not given),98%
same,% of controls (Hela cells cloning efficiency),[1]; [6],111%
same,% of controls (Hela cells cloning efficiency),[1]; dose 25 (dose unit not given),"74,95%"
same,% of controls (Hela cells cloning efficiency),[1]; dose 50 (dose unit not given),86%
same,% of controls (Hela cells cloning efficiency),[1]; dose 100 (dose unit not given),10%
same,T/C % (median survival time of treated mice/median survival time of controls x100),[2]; 5.1 mg/kg i.p. day 1,110%
same,Toxicity Death,[2]; 5.1 mg/kg i.p. day 1,0/10
same,T/C % (median survival time of treated mice/median survival time of controls x100),[2]; 9.2 mg/kg i.p. day 1,120%
same,Toxicity Death,[2]; 9.2 mg/kg i.p. day 1,0/10
same,T/C % (median survival time of treated mice/median survival time of controls x100),[2]; 16.6 mg/kg i.p. day 1,130%
same,Toxicity Death,[2]; 16.6 mg/kg i.p. day 1,0/10
same,toxicity at the maximal dose tested,[2]; 30 mg/kg i.p.,not toxic
same,T/C % (median survival time of treated mice/median survival time of controls x100),[2]; 30 mg/kg i.p. day 1,145%
same,Toxicity Death,[2]; 30 mg/kg i.p. day 1,0/10
same,antitumor activity relative to daunorubicin,[2]; 30 mg/kg i.p. vs daunorubicin at 2.9 mg/kg,about as active as daunorubicin
same,antitumor activity (overall conclusion),[2],remarkable antitumor activity
same,potency relative to the corresponding parent compounds,[2],less potent than the corresponding parent compounds
same,toxicity relative to the corresponding parent compounds,[2],less toxic
same,MTD,[3],22.5 mg/kg
same,T/C % (median survival time of treated mice/median survival time of controls x100),[4]; 22.5 mg/kg i.v. day 1,240%
same,Toxicity Death,[4]; 22.5 mg/kg i.v. day 1,0/10
same,antitumor activity relative to daunorubicin,[4]; 22.5 mg/kg i.v. vs daunorubicin at 6 mg/kg,about as active as daunorubicin
same,T/C % (median survival time of treated mice/median survival time of controls x100),[4]; 33.7 mg/kg i.v. day 1,150%
same,Toxicity Death,[4]; 33.7 mg/kg i.v. day 1,6/10
same,T/C % (median survival time of treated mice/median survival time of controls x100),[4]; 50 mg/kg i.v. day 1,120%
same,Toxicity Death,[4]; 50 mg/kg i.v. day 1,10/10
same,toxicity relative to daunorubicin,"[4]; i.v. day 1, Gross leukemia mice",less toxic than daunorubicin
"COc1cccc2c1C(=O)c1c(O)c3c(c(O)c1C2=O)C[C@@](O)(C(=O)CO)C[C@@H]3O[C@H]1C[C@H](N)[C@H](O)[C@H](C)O1 [Doxorubicin, doxorubicin, reference compound]",% of controls (Hela cells cloning efficiency),[1]; [6],"63,93%"
same,% of controls (Hela cells cloning efficiency),[1]; dose 25 (dose unit not given),"26,22%"
same,MTD,[5],10 mg/kg
same,T/C % (median survival time of treated mice/median survival time of controls x100),[2]; 4.4 mg/kg i.p. day 1,245%
same,Toxicity Death,[2]; 4.4 mg/kg i.p. day 1,0/10
same,T/C % (median survival time of treated mice/median survival time of controls x100),[2]; 6.6 mg/kg i.p. day 1,255%
same,Toxicity Death,[2]; 6.6 mg/kg i.p. day 1,0/10
same,T/C % (median survival time of treated mice/median survival time of controls x100),[2]; 10 mg/kg i.p. day 1,345%
same,Toxicity Death,[2]; 10 mg/kg i.p. day 1,0/10
"COc1cccc2c1C(=O)c1c(O)c3c(c(O)c1C2=O)C[C@@](O)(C(C)=O)C[C@@H]3O[C@H]1C[C@H](N)[C@H](O)[C@H](C)O1 [Daunorubicin, daunorubicin, reference compound]",% of controls (Hela cells cloning efficiency),[1]; dose 6.2 (dose unit not given),"90,48%"
same,% of controls (Hela cells cloning efficiency),[1]; [6],"44,19%"
same,MTD,[5],2.9 mg/kg
same,T/C % (median survival time of treated mice/median survival time of controls x100),[2]; 2.9 mg/kg i.p. day 1,155%
same,Toxicity Death,[2]; 2.9 mg/kg i.p. day 1,0/10
same,T/C % (median survival time of treated mice/median survival time of controls x100),[2]; 4.4 mg/kg i.p. day 1,160%
same,Toxicity Death,[2]; 4.4 mg/kg i.p. day 1,2/10
same,T/C % (median survival time of treated mice/median survival time of controls x100),[2]; 6.6 mg/kg i.p. day 1,150%
same,Toxicity Death,[2]; 6.6 mg/kg i.p. day 1,5/10
same,MTD,[3],6 mg/kg
same,T/C % (median survival time of treated mice/median survival time of controls x100),[4]; 4.6 mg/kg i.v. day 1,180%
same,Toxicity Death,[4]; 4.6 mg/kg i.v. day 1,0/10
same,T/C % (median survival time of treated mice/median survival time of controls x100),[4]; 6 mg/kg i.v. day 1,250%
same,Toxicity Death,[4]; 6 mg/kg i.v. day 1,0/10
same,T/C % (median survival time of treated mice/median survival time of controls x100),[4]; 7.8 mg/kg i.v. day 1,250%
same,Toxicity Death,[4]; 7.8 mg/kg i.v. day 1,3/10
"COc1cccc2c1C(=O)c1c(O)c3c(c(O)c1C2=O)C[C@@](O)(C(=O)CO)C[C@@H]3O[C@H]1C[C@@H](N)C[C@H](C)O1 [XOO-0155, 4'-deoxy-3'-epi-doxorubicin]",cytotoxicity relative to daunorubicin and doxorubicin,[1],less cytotoxic than daunorubicin and doxorubicin
same,% of controls (Hela cells cloning efficiency),[1]; dose 100 (dose unit not given),"12,5%"
same,mortality,"[5]; 22.5 mg/kg i.p. day 1, read-out: Toxicity Death",10%
same,MTD,[5],22.5 mg/kg
same,T/C % (median survival time of treated mice/median survival time of controls x100),[2]; 15 mg/kg i.p. day 1,195%
same,Toxicity Death,[2]; 15 mg/kg i.p. day 1,0/10
same,T/C % (median survival time of treated mice/median survival time of controls x100),[2]; 22.5 mg/kg i.p. day 1,235%
same,antitumor effect relative to doxorubicin,[2]; 22.5 mg/kg i.p. vs doxorubicin at 10 mg/kg,lower than that observed after treatment with doxorubicin
same,T/C % (median survival time of treated mice/median survival time of controls x100),[2]; 33.7 mg/kg i.p. day 1,260%
same,Toxicity Death,[2]; 33.7 mg/kg i.p. day 1,4/10
same,T/C % (median survival time of treated mice/median survival time of controls x100),[2]; 50 mg/kg i.p. day 1,60%
same,Toxicity Death,[2]; 50 mg/kg i.p. day 1,8/10
same,antitumor activity (overall conclusion),[2],remarkable antitumor activity
same,potency relative to the corresponding parent compounds,[2],less potent than the corresponding parent compounds
same,toxicity relative to the corresponding parent compounds,[2],less toxic
same,antitumor effect,[2]; maximal tolerated dose 22.5 mg/kg i.p.,remarkable antitumor effect
